Experimental data as given in patent publication US11497713B2, “Combination taxoid nanoemulsion with immunotherapy in cancer” (TargaGenix, Inc., priority 2017, dated 2022).

Legend:
prostate CD133+ cells = test: Prostate cancer stem cells under stemness-promoting culture conditions; assay type: cell-based
Method: In studies with DHA-SBT-1214 and prostate cancer stem cells, Applicants previously determined that low concentrations of DHA-SBT-1214 (0.1-1 μM) induced up to 80-90% death of the highly tumorigenic and highly drug-resistant prostate CD133^+ cells maintained under stemness-promoting culture conditions.

[1] = test system: human PANC-1 pancreatic tumor xenograft; test: Human PANC-1 pancreatic tumor xenograft, schedule comparison (FIG. 3); assay type: in vivo, RPCI SCID mice
Description: In FIG. 3, this experiment compared a q7d×3 with a q3d×3 schedule for paclitaxel and DHA-SBT-1214 using a human PANC-1 pancreatic tumor xenograft in RPCI SCID mice. […] Paclitaxel was only weakly effective, showing tumor growth delays of 18 days with q7d×3 schedule and 13 days with q3d×3 schedule and no CRs.

Compound: CC/C=C\C/C=C\C/C=C\C/C=C\C/C=C\C/C=C\CCC(=O)O[C@@H](C(=O)O[C@H]1C[C@@]2(O)[C@@H](OC(=O)c3ccccc3)[C@@H]3[C@]4(OC(C)=O)CO[C@@H]4C[C@H](O)[C@@]3(C)C(=O)[C@H](OC(=O)C3CC3)C(=C1C)C2(C)C)[C@H](C=C(C)C)NC(=O)OC(C)(C)C [DHA-SBT-1214, Docosahexaenoic acid conjugate of SBT-1214]
- cell death (prostate CD133+ cells; 0.1-1 μM): 80-90%
- expression of pro-apoptotic proteins p53 and p21 (prostate CD133+ cells; previously absent expression): significant up-regulation
- toxic deaths ([1]; 300 mg/kg total dose): one toxic death
- complete responses (CRs) ([1]; PANC-1 xenograft): achieved CRs and essentially were cured
- tumor growth delay ([1]; both schedules (q7d×3 and q3d×3)): > 90 days
- MTD ([1]; total dosage (80 mg/kg×3 inj)): 240 mg/kg
